Activity calls are given as the source filed them. The rule behind the calls is not given here.
Tested on: HaCaT
Test: Inhibition of ultraviolet B-irradiation upregulated of prostaglandin E2 production in human HaCaT cells at 10 uM measured after 2 hrs by ELISA relative to control
Format: functional, cell-based
Conditions: not given

Row | SMILES | inhibition
1 | COC(=O)[C@]1(O)C[C@@H](O)[C@@H](OC(=O)c2ccccc2)[C@H](O[C@@H]2O[C@@H](C)[C@H](O)[C@@H](O)[C@H]2O)C1 | Active
2 | CC(=O)O[C@@H]1C[C@](O)(C(=O)OCc2ccccc2O[C@@H]2O[C@H](CO)[C@@H](O)[C@H](O)[C@H]2O)C[C@@H](O)[C@H]1OC(=O)/C=C/c1ccccc1 | Active
3 | OCc1ccccc1O[C@@H]1O[C@H](CO)[C@@H](O)[C@H](O)[C@H]1O | inactive
4 | CC(=O)O[C@@H]1[C@H](OC(C)=O)C[C@@](OC(=O)/C=C/c2ccccc2)(C(=O)OCc2ccccc2O[C@@H]2O[C@H](CO)[C@@H](O)[C@H](O)[C@H]2O)C[C@H]1O[C@@H]1O[C@H](CO)[C@@H](O)[C@H](O)[C@H]1O | Active

Tested on: not listed separately
Test: Inhibition of ultraviolet B-irradiation upregulated of prostaglandin E2 production in human HaCaT cells measured after 2 hrs by ELISA
Format: functional, cell-based
Conditions: light or radiation study

Row | SMILES | IC50 [µM]
5 | COC(=O)[C@]1(O)C[C@@H](O)[C@@H](OC(=O)/C=C/c2ccccc2)[C@H](O)C1 | 28.8
6 | CC(=O)O[C@@H]1C[C@](O)(C(=O)OCc2ccccc2O[C@@H]2O[C@H](CO)[C@@H](O)[C@H](O)[C@H]2O)C[C@@H](OC(C)=O)[C@H]1OC(=O)/C=C/c1ccccc1 | 20.5
7 | CC(=O)Oc1ccccc1C(=O)O [ASPIRIN] | 30.4
8 | Oc1ccc(/C=C/c2cc(O)cc(O)c2)cc1 [RESVERATROL] | 35.1
